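Growth conditions: 96-well plates. Treatment: test compound, 48 hours, 5 concentrations. Analysis: linear interpolation between bracketing concentrations; unreached endpoints set to highest concentration. GI50: concentration for 50% inhibition of growth. At the TGI there is no net growth.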
Tests used:
Experiment in all cases: growth of human tumour cells (NCI), 48 h
CAKI-1 renal = system: CAKI-1 renal
DU-145 prostate = system: DU-145 prostate
EKVX NSCLC = system: EKVX NSCLC
HCT-15 colon = system: HCT-15 colon
HS 578T breast = system: HS 578T breast
IGROV1 ovarian = system: IGROV1 ovarian
NCI-H226 lung = system: NCI-H226 lung
NCI-H522 lung = system: NCI-H522 lung
SF-295 CNS = system: SF-295 CNS
MOLT-4 leukemia = system: MOLT-4 leukemia
SN12C renal = system: SN12C renal

CCOC(=O)c1cn2c(n1)sc1cccc(C)c12
TGI (CAKI-1 renal): > 100 µM
TGI (DU-145 prostate): > 100 µM
TGI (EKVX NSCLC): > 100 µM
TGI (HCT-15 colon): > 100 µM
TGI (HS 578T breast): > 100 µM
TGI (IGROV1 ovarian): > 100 µM
TGI (NCI-H226 lung): > 100 µM
TGI (NCI-H522 lung): > 100 µM
TGI (SF-295 CNS): > 100 µM

O=c1c2cc([N+](=O)[O-])cnc2sn1-c1ccc([N+](=O)[O-])cc1
TGI (DU-145 prostate): > 100 µM
TGI (EKVX NSCLC): > 100 µM
TGI (HCT-15 colon): 87.5 µM
TGI (HS 578T breast): 90 µM
TGI (IGROV1 ovarian): > 100 µM
TGI (MOLT-4 leukemia): 75.6 µM
TGI (NCI-H226 lung): > 100 µM
TGI (NCI-H522 lung): 25.7 µM
TGI (SF-295 CNS): > 100 µM
TGI (SN12C renal): > 100 µM

O=C(CCN1CCCCC1)C(=Cc1ccccc1)C(=O)CCN1CCCCC1
GI50 (CAKI-1 renal): 80.4 µM
TGI (CAKI-1 renal): > 100 µM
TGI (EKVX NSCLC): > 100 µM
GI50 (HCT-15 colon): 3.07 µM
TGI (IGROV1 ovarian): > 100 µM
GI50 (MOLT-4 leukemia): 4.32 µM
TGI (MOLT-4 leukemia): 42.3 µM
TGI (NCI-H226 lung): > 100 µM
GI50 (NCI-H522 lung): 15.1 µM
TGI (SF-295 CNS): > 100 µM
GI50 (SN12C renal): 3.52 µM
TGI (SN12C renal): > 100 µM

C=C1C(=O)O[C@@H]2C(=O)[C@@H](C)CCC/C(C)=C/CC[C@@]3(C)O[C@@H]3C[C@@H]12
TGI (CAKI-1 renal): 37.5 µM
TGI (DU-145 prostate): > 100 µM
TGI (EKVX NSCLC): > 100 µM
TGI (HCT-15 colon): 44 µM
TGI (IGROV1 ovarian): 45.7 µM
TGI (MOLT-4 leukemia): > 100 µM
TGI (NCI-H226 lung): > 100 µM
TGI (NCI-H522 lung): 25.2 µM
TGI (SF-295 CNS): > 100 µM
TGI (SN12C renal): > 100 µM

CC(C)=CCc1c2c(c3occ(-c4ccc(O)cc4)c(=O)c3c1O)CC(C(C)(C)O)O2 (configuration not stated)
TGI (CAKI-1 renal): 35.7 µM
TGI (DU-145 prostate): 29.4 µM
TGI (HCT-15 colon): 30 µM
TGI (HS 578T breast): 69.5 µM
TGI (IGROV1 ovarian): 12 µM
TGI (MOLT-4 leukemia): 31.8 µM
TGI (NCI-H226 lung): 43 µM
TGI (NCI-H522 lung): 34 µM
TGI (SF-295 CNS): 25 µM
TGI (SN12C renal): 38.5 µM

O=c1[nH]c(Nc2cccc(CC(F)(F)F)c2)nc2nc[nH]c12
TGI (CAKI-1 renal): > 100 µM
TGI (DU-145 prostate): > 100 µM
TGI (EKVX NSCLC): > 100 µM
TGI (HCT-15 colon): > 100 µM
TGI (HS 578T breast): > 100 µM
TGI (IGROV1 ovarian): > 100 µM
TGI (NCI-H226 lung): > 100 µM
TGI (NCI-H522 lung): > 100 µM
TGI (SF-295 CNS): > 100 µM
TGI (SN12C renal): > 100 µM

c1csc(-c2ccc(-c3cccc4nsnc34)s2)c1
TGI (CAKI-1 renal): > 100 µM
TGI (DU-145 prostate): > 100 µM
TGI (EKVX NSCLC): > 100 µM
TGI (HCT-15 colon): > 100 µM
TGI (MOLT-4 leukemia): 39.2 µM
TGI (NCI-H226 lung): > 100 µM
TGI (NCI-H522 lung): > 100 µM
TGI (SF-295 CNS): > 100 µM
TGI (SN12C renal): > 100 µM

ClCCN1CCC2(CC1)SSC1(CCN(CCCl)CC1)S2
TGI (CAKI-1 renal): 33.4 µM
TGI (DU-145 prostate): > 100 µM
TGI (HCT-15 colon): > 100 µM
TGI (HS 578T breast): > 100 µM
TGI (IGROV1 ovarian): > 100 µM
TGI (MOLT-4 leukemia): > 100 µM
TGI (SF-295 CNS): 92.5 µM
TGI (SN12C renal): 72.8 µM

N#Cc1c(-c2ccccc2)/c(=C\Nc2cccc(C(F)(F)F)c2)c(=O)n2c1nc1ccccc12
TGI (CAKI-1 renal): 14.2 µM
TGI (EKVX NSCLC): 74.2 µM
TGI (HCT-15 colon): > 100 µM
TGI (IGROV1 ovarian): > 100 µM
TGI (NCI-H226 lung): 80.9 µM
TGI (NCI-H522 lung): 32.1 µM
TGI (SF-295 CNS): > 100 µM
TGI (SN12C renal): 50.5 µM

N#CC1(C#N)N[C@@H](c2ccsc2)[C@H]2C(=O)N(c3ccccc3)C(=O)[C@H]21
TGI (CAKI-1 renal): > 100 µM
TGI (DU-145 prostate): > 100 µM
TGI (EKVX NSCLC): > 100 µM
TGI (HS 578T breast): > 100 µM
TGI (IGROV1 ovarian): > 100 µM
TGI (MOLT-4 leukemia): > 100 µM
TGI (NCI-H226 lung): > 100 µM
TGI (NCI-H522 lung): > 100 µM
TGI (SF-295 CNS): > 100 µM
TGI (SN12C renal): > 100 µM

Cc1cc(Cc2cc(C)c(N)cc2N)c(N)cc1N
TGI (CAKI-1 renal): > 100 µM
TGI (DU-145 prostate): > 100 µM
TGI (EKVX NSCLC): > 100 µM
TGI (HCT-15 colon): > 100 µM
TGI (IGROV1 ovarian): > 100 µM
TGI (MOLT-4 leukemia): > 100 µM
TGI (NCI-H226 lung): > 100 µM
TGI (NCI-H522 lung): > 100 µM
TGI (SF-295 CNS): > 100 µM
TGI (SN12C renal): > 100 µM

C#CCNC(CS)C(=O)O (configuration not stated)
TGI (CAKI-1 renal): > 100 µM
TGI (DU-145 prostate): > 100 µM
TGI (EKVX NSCLC): > 100 µM
TGI (HCT-15 colon): > 100 µM
TGI (HS 578T breast): > 100 µM
TGI (IGROV1 ovarian): > 100 µM
TGI (MOLT-4 leukemia): > 100 µM
TGI (NCI-H226 lung): > 100 µM
TGI (NCI-H522 lung): > 100 µM
TGI (SF-295 CNS): > 100 µM

Cc1cn2c(/C=N/N=C(N)N)c(-c3cccc([N+](=O)[O-])c3)nc2s1
TGI (CAKI-1 renal): 6.06 µM
TGI (DU-145 prostate): 3.27 µM
TGI (EKVX NSCLC): 5.39 µM
TGI (HCT-15 colon): 19.6 µM
TGI (HS 578T breast): 5.19 µM
TGI (IGROV1 ovarian): 19.7 µM
TGI (MOLT-4 leukemia): 4.04 µM
TGI (NCI-H522 lung): 3.91 µM
TGI (SF-295 CNS): 3.3 µM
TGI (SN12C renal): 3.08 µM

Clc1ccccc1C(SCc1ccccc1)SCc1ccccc1
TGI (CAKI-1 renal): > 100 µM
TGI (DU-145 prostate): > 100 µM
TGI (EKVX NSCLC): > 100 µM
TGI (HCT-15 colon): > 100 µM
TGI (IGROV1 ovarian): > 100 µM
TGI (MOLT-4 leukemia): > 100 µM
TGI (NCI-H226 lung): > 100 µM
TGI (NCI-H522 lung): > 100 µM
TGI (SF-295 CNS): > 100 µM
TGI (SN12C renal): > 100 µM

c1ccc(-c2nc(-c3ccccc3SSc3ccccc3-c3nc(-c4ccccc4)nn3-c3ccccc3)n(-c3ccccc3)n2)cc1
TGI (CAKI-1 renal): > 100 µM
TGI (DU-145 prostate): > 100 µM
TGI (EKVX NSCLC): > 100 µM
TGI (HCT-15 colon): > 100 µM
TGI (HS 578T breast): > 100 µM
TGI (IGROV1 ovarian): > 100 µM
TGI (MOLT-4 leukemia): > 100 µM
TGI (NCI-H226 lung): > 100 µM
TGI (SF-295 CNS): > 100 µM
TGI (SN12C renal): > 100 µM

CCOC(=O)c1csc(NC(=O)CN2CCOCC2)n1
TGI (CAKI-1 renal): > 100 µM
TGI (DU-145 prostate): > 100 µM
TGI (EKVX NSCLC): > 100 µM
TGI (HCT-15 colon): > 100 µM
TGI (HS 578T breast): > 100 µM
TGI (IGROV1 ovarian): > 100 µM
TGI (MOLT-4 leukemia): 48.5 µM
TGI (SF-295 CNS): > 100 µM

CC1(C)N=[N+]([O-])C1(C)C
TGI (CAKI-1 renal): > 100 µM
TGI (DU-145 prostate): > 100 µM
TGI (EKVX NSCLC): > 100 µM
TGI (HCT-15 colon): > 100 µM
TGI (HS 578T breast): > 100 µM
TGI (IGROV1 ovarian): > 100 µM
TGI (MOLT-4 leukemia): > 100 µM
TGI (NCI-H226 lung): > 100 µM
TGI (NCI-H522 lung): > 100 µM
TGI (SN12C renal): > 100 µM

COCO[C@@H]1C[C@H]2C(=O)Nc3ccccc3C(=O)N2C1
TGI (CAKI-1 renal): > 100 µM
TGI (DU-145 prostate): > 100 µM
TGI (EKVX NSCLC): > 100 µM
TGI (HCT-15 colon): > 100 µM
TGI (HS 578T breast): > 100 µM
TGI (IGROV1 ovarian): > 100 µM
TGI (NCI-H226 lung): > 100 µM
TGI (NCI-H522 lung): 37.5 µM
TGI (SF-295 CNS): > 100 µM
TGI (SN12C renal): > 100 µM

NC(=O)NCCCC(NC(=O)OCCCCn1ccc(=O)[nH]c1=O)C(=O)O (configuration not stated)
TGI (CAKI-1 renal): > 100 µM
TGI (DU-145 prostate): > 100 µM
TGI (EKVX NSCLC): > 100 µM
TGI (HCT-15 colon): > 100 µM
TGI (HS 578T breast): > 100 µM
TGI (IGROV1 ovarian): > 100 µM
TGI (MOLT-4 leukemia): > 100 µM
TGI (NCI-H226 lung): > 100 µM
TGI (SF-295 CNS): > 100 µM
TGI (SN12C renal): > 100 µM

CCC(C(=O)O)c1ccc(OC)cc1 (configuration not stated)
TGI (CAKI-1 renal): > 100 µM
TGI (EKVX NSCLC): > 100 µM
TGI (IGROV1 ovarian): > 100 µM
TGI (MOLT-4 leukemia): > 100 µM
TGI (NCI-H226 lung): > 100 µM
TGI (NCI-H522 lung): > 100 µM
TGI (SF-295 CNS): > 100 µM
TGI (SN12C renal): > 100 µM

CN(C)C(=O)O/N=C1/C(c2c(O)[nH]c3ccccc23)=Nc2ccccc21
TGI (CAKI-1 renal): 72.6 µM
TGI (DU-145 prostate): > 100 µM
TGI (EKVX NSCLC): 33.5 µM
TGI (HCT-15 colon): > 100 µM
TGI (HS 578T breast): 40.2 µM
TGI (IGROV1 ovarian): 64 µM
TGI (MOLT-4 leukemia): 41.5 µM
TGI (NCI-H522 lung): 75.3 µM
TGI (SF-295 CNS): 68.8 µM
TGI (SN12C renal): > 100 µM

Cc1nc2n(c1/C=C1/C(=O)Nc3cccc(Cl)c31)CCS2
TGI (CAKI-1 renal): > 100 µM
TGI (DU-145 prostate): > 100 µM
TGI (EKVX NSCLC): > 100 µM
TGI (HCT-15 colon): > 100 µM
TGI (HS 578T breast): 53.9 µM
TGI (IGROV1 ovarian): > 100 µM
TGI (MOLT-4 leukemia): > 100 µM
TGI (NCI-H522 lung): > 100 µM
TGI (SF-295 CNS): > 100 µM
TGI (SN12C renal): > 100 µM

— PubChem BioAssay (NCI)
